The source of these data is patent US20100140166A1, “PROCESS FOR FERMENTIVE PREPARATION OF ALCOHOLS AND RECOVERY OF PRODUCT” (E.I. DU PONT DE NEMOURS AND COMPANY, priority 2008, published 2010).

Data set [1] is described as follows: Extraction of isobutanol from an aqueous solution by ionic liquid (HPLC). The data set is classed as physicochemical. As to conditions: 3 mL aqueous solution about 31 g/L isobutanol, 5 vol % ionic liquid, overnight equilibration, control 436.
Protocol: (§1) Ethanol and isobutanol concentration in the solution was measured using HPLC as described above following thorough mixing and overnight equilibration of the contents of the vial.
Data set [2] relates to Saccharomyces cerevisiae (W1362 20A). In words: Glucose Uptake Index (GUI) of Saccharomyces cerevisiae culture in the presence of ionic liquid. The class given is cell-based. As to conditions: 5% (v/v) ionic liquid, YPD medium, 30° C., 16 hours after addition; GUI of control without ionic liquid 79.0 (Ex. 1-5) or 100 (Ex. 6-8).
Data set [3] is described as follows: Extraction of ethanol from an aqueous solution by ionic liquid (HPLC). The data set is classed as physicochemical. The note with it: 3 mL aqueous solution about 31 g/L ethanol, 5 vol % ionic liquid, overnight equilibration, control 655.
Protocol: as §1

Molecules are shown by their SMILES.

`CCOCC[N+](C)(C)CCN1C(=O)CCC1C` (stereo not shown) [Example 2, 1-(N,N,N-dimethyl(ethylethoxy)aminoethyl)-5-methyl-pyrrolidine-2-one hexafluoropropanesulfonate]: the “mM isobutanol (in solution after equilibration)” value (from here on “mM isobutanol”) in data set [1] (listed as [MeDMEEAP] [HFPS]) is listed as 422 mM. Besides, the “GUI of Sample (Glucose Utilization Index in the presence of ionic liquid phase)” value in data set [2] is reported as 34.0. Moreover, in data set [3] (listed as [MeDMEEAP] [HFPS]), the “mM Ethanol (in solution after equilibration)” value (“mM Ethanol” for short) came to 656 mM.

For `CCOCC[N+](C)(C)CCN1C(=O)CCC1C` (stereo not shown) [Example 3, 1-(N,N,N-dimethyl(ethylethoxy)aminoethyl)-5-methyl-pyrrolidine-2-one bis(trifluoromethane)sulfonamide], in data set [1] (listed as [MeDMEEAP] [Tf2N]), the “mM isobutanol” value worked out at 398 mM. Besides, the “GUI of Sample (Glucose Utilization Index in the presence of ionic liquid phase)” value in data set [2] came out at 80.4. Also, the “mM Ethanol” value in data set [3] (listed as [MeDMEEAP] [Tf2N]) was found to be 637 mM.

For the compound `COCC[N+](C)(C)CCN1C(=O)CCC1C` (stereo not shown) [Example 4, 1-(N,N,N-dimethyl(methylethoxy)aminoethyl)-5-methylpyrrolidin-2-one hexafluoropropanesulfonate], the “mM isobutanol” value in data set [1] was 423 mM. In addition, in data set [2], the “GUI of Sample (Glucose Utilization Index in the presence of ionic liquid phase)” value is given as 21.9. In data set [3], the “mM Ethanol” value was 645 mM.

On to `CCC[N+](C)(C)CCN1C(=O)CCC1C.O=S(=O)([N-]S(=O)(=O)C(F)(F)F)C(F)(F)F` (stereo not shown) [Example 6, 1-(N,N,N-dimethylpropylaminoethyl)-5-methyl pyrrolidone-2-one bis(trifluoromethane)sulfonamide], for which the “mM isobutanol” value in data set [1] stood at 387 mM. In data set [2], the “GUI of Sample (Glucose Utilization Index in the presence of ionic liquid phase)” value came out at 100.

As to `COCC[N+](C)(C)CCN1C(=O)CCC1C.O=S(=O)([N-]S(=O)(=O)C(F)(F)F)C(F)(F)F` (stereo not shown) [Example 7, 1-(N,N,N-dimethyl(methylethoxy)aminoethyl)-5-methyl pyrrolidone-2-one bis(trifluoromethane)sulfonamide], the “mM isobutanol” value in data set [1] is 389 mM. Moreover, the “GUI of Sample (Glucose Utilization Index in the presence of ionic liquid phase)” value in data set [2] worked out at 100. Also, in data set [3], the “mM Ethanol” value came to 643 mM.

As to `CC1CCC(=O)N1CC[N+](C)(C)CCO.O=S(=O)([N-]S(=O)(=O)C(F)(F)F)C(F)(F)F` (stereo not shown) [Example 8, 1-(N,N,N-dimethyl(hydroxyethyl)aminoethyl)-5-methyl pyrrolidone-2-one bis(trifluoromethane)sulfonamide], the “mM isobutanol” value in data set [1] turned out to be 417 mM. For the same compound, in data set [2], the “GUI of Sample (Glucose Utilization Index in the presence of ionic liquid phase)” value is on record as 89.3.
